In patent US5187195A, “Anthraquinone derivatives and preparation thereof” (Fujisawa Pharmaceutical Co., Ltd., priority 1989, dated 1993):
pIC50: −log10 of the molar value. Values belong to the compound of their own block, whether it stands above or below them.

What was measured:
[1] = molecular target: T1, crude receptor membrane fractions of porcine aorta (^125 I-endothelin binding) (Sus scrofa, UniProt Q29010); assay: Radioligand binding assay (^125 I-Endothelin binding to porcine aorta membrane fractions); settings: for pIC50: concentration required to compete with ^125 I-endothelin (1.67×10^-11 M) for binding to porcine aorta membrane fractions by 50%, 60 minutes, room temperature, pH 7.5
T1 construct: tissue Pel-Freez Biologicals (U.S.A.); host or cells: porcine aorta, crude membrane fractions
T1 sequence (Q29010 21-427): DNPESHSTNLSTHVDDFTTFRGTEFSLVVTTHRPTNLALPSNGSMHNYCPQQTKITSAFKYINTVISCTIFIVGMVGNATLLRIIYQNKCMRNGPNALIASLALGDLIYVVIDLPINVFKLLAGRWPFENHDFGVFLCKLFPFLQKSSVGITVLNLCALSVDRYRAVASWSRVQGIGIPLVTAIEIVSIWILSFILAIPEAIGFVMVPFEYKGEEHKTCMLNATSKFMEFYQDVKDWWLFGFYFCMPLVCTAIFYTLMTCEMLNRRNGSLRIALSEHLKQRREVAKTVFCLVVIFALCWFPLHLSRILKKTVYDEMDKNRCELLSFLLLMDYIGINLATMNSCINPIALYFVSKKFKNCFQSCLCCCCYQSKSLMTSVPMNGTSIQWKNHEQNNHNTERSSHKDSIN
Description: Radioligand Binding Assay
(a) Preparation of crude receptor membrane fractions
Porcine aorta was purchased from Pel-Freez Biologicals (U.S.A.) and stored at -80° C. until use.
Porcine aorta (50 g) was thawed and dissected free from fatty tissue, minced with scissors and then homogenized with a polytron (Brinkmann PT-20, maximal speed for 3×10 sec) in 100 ml buffer (0.25 M sucrose, 10 mM Tris-HCl, 0.1 mM EDTA, pH 7.5).
The homogenate was centrifuged at 10,000 g for 20 minutes at 4° C.
The supernatant, containing the plasma membrane fraction, was centrifuged at 100,000 g for 60 minutes at 4° C., and then resultant pellets were referred to as crude membrane fractions.
The pellets were resuspended in 25 ml of binding assay buffer (50 mM Tris-HCl, 100 mM NaCl, 5 mM MgCl2, 1.5 μg/ml phenylmethylsulfonyl fluoride (PMSF), 120 μg/ml bacitracin, 12 μg/ml leupepcin, 6 μg/ml chymostain, 0.1% bovine serum albumin (BSA), pH 7.5)
The aorta membrane fractions were stored at -80° C. until use.
(b) ^125 I-Endothelin Binding Assay
^125 I-Endothelin (1.67×10^-11 M) (Amersham Japan, specific activity: 2000 Ci/m mol) was incubated with 50 μl of the aorta membrane fractions in binding assay buffer at room temperature (20°-22° C.) for 60 minutes in a final volume of 250 μl.
After incubation, the incubation mixture were filtered through Glass-fiber GF/C filter (pretreated with 0.1% polyethylene imine for 3 hours prior to use) using cell harvester (Brandel M-245). The filters were then washed ten times with a total of 3 ml of the washing buffer (50 mM Tris-HCl, pH 7.5) at 0° C. The filters were counted in a gamma counter (Packard Auto Gamma Model 5650).
The activity of test compounds was expressed as IC50 value, i.e. concentration required to compete with ^125 I-endothelin for binding to prorcine aorta membrane fractions by 50%.

[2] = Solubility; assay type: physicochemical
[3] = system: contraction response of rabbit thoracic aorta induced by endothelin; assay: Effect on rabbit aorta contraction response of endothelin (isolated strips); design: species or system rabbit (male albino); settings: Oryctolagus cuniculus, endothelin 3.2×10^-9 M, % inhibition of maximum contraction, compound added after full contraction; for inhibition at 100 µM: 1 × 10^-4 M; for inhibition at 10 µM: 1 × 10^-5 M
Description: Effect of FR901366 Substance and FR901367 Substance on Rabbit Aorta of Contraction Response of Endothelin
Thoracic aorta were isolated from freshly killed male albino rabbits (11 weeks old) and cut into 25 mm strips with the intima denuded. After removing fatty tissues, these arterial segments (2 mm width and 25 mm length) were suspended in 25 ml organ chambers filled with Krebs-Ringer solution (113 mM NaCl, 4.8 mM KCl, 2.2 mM CaCl2, 1.2 mM MgCl2, 25 mM NaHCO3, 1.2 mM KH2 PO4, 5.5 mM glucose) maintained at 37° C. and gassed with 95% O2 /5% CO2.
A preload of 1 g was applied after the aorta had been conditioned by application of increasing concentration of KCl. Contractions were measured as an increase in isometric tension.
The test compound was tested against contraction response of endothelin (3.2×10^-9 M). Synthetic endothelin was obtained from Peptide Institute Inc. (Osaka, Japan). The test compound substance was added after the full contraction response induced endothelin.
The activity of the test compounds is expressed as the percentage inhibition of maximum contraction response induced by endothelin and shown in Table 7.

[4] = system: endothelin induced pressor response; assay: In vivo pressor effect in conscious rats (inhibition of endothelin induced pressor response); design: species or system rat (male Wister); settings: 10 mg/kg i.v., 3 minutes before endothelin 2.4 μg/kg i.v., three rats
Description: Assay of In Vivo Pressor Effect in Conscious Rats
Male Wister rats (10 weeks old) were used. The mean arterial blood pressure was recorded from femoral artery via polyethylene catheter connected to the pressure transducer which was coupled to a Biophysiograph 180 system (Nihondenki-San-Ei Instrument Co., Ltd.).
FR901366 substance and endothelin were dissolved in saline and injected in bolus (0.2 ml) through polyethylene cateter inserted via femoral vein.
FR901366 substance was administered 3 minutes before the injection of endothelin. Inhibitory activity of FR90136 substance (10 mg/kg, i. v.) against endothelin (2.4 μg/kg, i. v.) induced pressor response was evaluated with a group of three rats and shown in Table 8.

SMILES: COC(=O)C(CSC12C(=O)c3c(OC(C)=O)cccc3C(=O)C1(O)C1(O)C(=O)C=C(C)CC1(O)CC2OC(C)=O)NC(C)=O (centres unmarked) [FR129797]
pIC50 [1]: 4.99

SMILES: CC[C@H](C)[C@H](NC(=O)C(CSC12CCC3(O)CC(C)=CC(=O)C3(O)C1(O)C(=O)c1cccc(O)c1C2=O)NC(C)=O)C(=O)N[C@@H](Cc1c[nH]c2ccccc12)C(=O)OC (some centres unmarked) [FR134763]
pIC50 [1]: 4.43

SMILES: CC(=O)NC(CSC12C(=O)c3c(O)cccc3C(=O)C1(O)C1(O)C(=O)C=C(C)CC1(O)CC2O)C(=O)O (centres unmarked) [FR901367]
Solubility ([2]; acetone): sparingly soluble | Solubility ([2]; ethanol): soluble | Solubility ([2]; ethyl acetate): sparingly soluble | Solubility ([2]; methanol): soluble | Solubility ([2]; n-hexane): insoluble | Solubility ([2]; water): sparingly soluble | inhibition at 100 µM [3]: 75% | inhibition at 10 µM [3]: 38.6% | pIC50 [1]: 6.17 | competition with ^125 I-endothelin for binding to porcine aorta membrane fractions ([1]; result in words): competes with ^125 I-endothelin for binding

SMILES: CC[C@H](C)[C@H](NC(=O)C(CSC12CCC3(O)CC(C)=CC(=O)C3(O)C1(O)C(=O)c1cccc(O)c1C2=O)NC(C)=O)C(=O)N[C@@H](Cc1c[nH]c2ccccc12)C(=O)O (some centres unmarked) [FR134764]
pIC50 [1]: 4.92

SMILES: CC1=CC(=O)C2(O)C(O)(CCC3(SCC(N)C(=O)O)C(=O)c4c(O)cccc4C(=O)C32O)C1 (centres unmarked) [FR131132]
Solubility ([2]; chloroform): insoluble | Solubility ([2]; ethanol): sparingly soluble | Solubility ([2]; methanol): sparingly soluble | Solubility ([2]; n-hexane): insoluble | Solubility ([2]; water): sparingly soluble | pIC50 [1]: 3.83

SMILES: COC(=O)C(CSC12C(=O)c3c(O)cccc3C(=O)C1(O)C1(O)C(=O)C=C(C)CC1(O)CC2O)NC(C)=O (centres unmarked) [FR129795]
pIC50 [1]: 5.56

SMILES: CCCCCC(=O)NC(CSC12CCC3(O)CC(C)=CC(=O)C3(O)C1(O)C(=O)c1cccc(O)c1C2=O)C(=O)O (centres unmarked) [FR131668]
pIC50 [1]: 4.77

SMILES: COC(=O)C(CSC12CCC3(O)CC(C)=CC(=O)C3(O)C1(O)C(=O)c1cccc(O)c1C2=O)NC(C)=O (centres unmarked) [FR134624]
pIC50 [1]: 4.98

SMILES: COC(=O)C(CSC12C(=O)c3c(O)cccc3C(=O)C1(O)C1(O)C(=O)C=C(C)CC1(O)CC2OC(C)=O)NC(C)=O (centres unmarked) [FR129796]
pIC50 [1]: 4.87

SMILES: COC(=O)[C@H](Cc1c[nH]c2ccccc12)NC(=O)C(CSC12CCC3(O)CC(C)=CC(=O)C3(O)C1(O)C(=O)c1cccc(O)c1C2=O)NC(C)=O (some centres unmarked) [FR134762]
pIC50 [1]: 4.92

SMILES: COC(=O)C(CSC12CCC3(OC(C)=O)CC(C)=CC(=O)C3(OC(C)=O)C1(OC(C)=O)C(=O)c1cccc(OC(C)=O)c1C2=O)NC(C)=O (centres unmarked) [FR134625]
pIC50 [1]: 3.45

SMILES: CC(=O)NC(CSC12CCC3(O)CC(C)=CC(=O)C3(O)C1(O)C(=O)c1cccc(O)c1C2=O)C(=O)NCCO (centres unmarked) [FR134761]
pIC50 [1]: 4.99

SMILES: CC1=CC(=O)C2(O)C(O)(C1)CC(O)C1(SCC(N)C(=O)O)C(=O)c3c(O)cccc3C(=O)C12O (centres unmarked) [FR134851]
Solubility ([2]; chloroform): insoluble | Solubility ([2]; ethanol): soluble | Solubility ([2]; methanol): soluble | Solubility ([2]; n-hexane): insoluble | Solubility ([2]; water): sparingly soluble | pIC50 [1]: 4.68

The next lines start with results.

pIC50 [1]: 4.41
SMILES: CC1=CC(=O)C2(O)C(O)(CCC3(SCC(NC(=O)Cc4ccc(Cl)cc4)C(=O)O)C(=O)c4c(O)cccc4C(=O)C32O)C1 (centres unmarked) [FR131663]

pIC50 [1]: 4.66
SMILES: CC1=CC(=O)C2(O)C(O)(CCC3(SCC(NC(=O)c4ccccc4)C(=O)O)C(=O)c4c(O)cccc4C(=O)C32O)C1 (centres unmarked) [FR131661]

pIC50 [1]: 5.36
SMILES: CC1=CC(=O)C2(O)C(O)(CCC3(SCC(NC(=O)OC(C)(C)C)C(=O)O)C(=O)c4c(O)cccc4C(=O)C32O)C1 (centres unmarked) [FR131662]

Solubility ([2]; acetone): soluble | Solubility ([2]; chloroform): sparingly soluble | Solubility ([2]; hexane): insoluble | Solubility ([2]; methanol): soluble | Solubility ([2]; water): insoluble | pIC50 [1]: 5.22
SMILES: CC(=O)NC(CSC12CCC3(O)CC(C)=CC(=O)C3(O)C1(O)C(=O)c1cccc(O)c1C2=O)C(=O)O (centres unmarked) [FR901366]
Inhibition of endothelin pressor response ([4]; 5 min after administration): 27.2% | Inhibition of endothelin pressor response ([4]; 10 min after administration): 50.0% | Inhibition of endothelin pressor response ([4]; 20 min after administration): 63.3% | Inhibition of endothelin pressor response ([4]; 30 min after administration): 53.8% | Inhibition of endothelin pressor response ([4]; 60 min after administration): 66.6% | Inhibition of endothelin pressor response ([4]; 120 min after administration): 50.0% | inhibition at 100 µM [3]: 39% | inhibition at 10 µM [3]: 15%

pIC50 [1]: 3.98
SMILES: CC1=CC(=O)C2(O)C(O)(CCC3(SCC(NC(=O)C(C)C)C(=O)O)C(=O)c4c(O)cccc4C(=O)C32O)C1 (centres unmarked) [FR131667]
